Patent US20160324738A1, “Oral Compositions Containing Stannous” (The Procter & Gamble Company, priority 2015, published 2016)

Assay: In-vitro pH cycling study of enamel fluoride uptake (enamel fluoridation)
Design: species or system human
Settings: both salts at levels providing 1100 ppm of fluoride ion; versus sodium fluoride
Protocol: An in-vitro pH cycling study was conducted to evaluate the effect of excess metals and its modulation on fluoride uptake in pre-demineralized human enamel specimens.

In the case of `[F][Sn][F]` [stannous fluoride], the enamel fluoridation is reported as “less than what is typically seen with sodium fluoride”.
